As a reminder, the IC50 is the concentration that gives 50% inhibition.

The results in this text go back to patent US5475136A, “Inhibitors of HIV protease useful for the treatment of AIDS” (Eli Lilly and Company, priority 1992, dated 1995).

This experiment deals with T1, HIV-1 protease (Human immunodeficiency virus type 1 group M subtype B, UniProt P04585).
T1 construct: host or cells: E. coli K12 L507/pHP10D
In words: biochemical. The following applies: read-out: Fluorescence Assay IC50 (converted). As for the experimental part:
Lyophils of E. coli K12 L507/pHP10D were obtained from the Northern Regional Research Laboratory, Peoria, Ill. 61604, under the accession number NRRL B-18560 (deposited Nov. 14, 1989).
A culture of E. coli K12 L507/pHP10D was grown to mid-log phase at 32° C. in LB media containing 12.5 μg/mL tetracycline. The cultivation temperature was quickly elevated to 40° C. to induce gene expression, and the cells were allowed to grow for 2.5 hours at this temperature before the culture was quickly chilled on ice. The cells were centrifuged and the cell pellet was resuspended in 20 mL 50 mmol MES buffer (pH 6.0) containing 1 mmol EDTA, 1 mmol DTT, 1 mmol PMSF and 10% glycerol ("Buffer A"). Cells were lysed by sonication using a Fischer Model 300 Dismembrator and a microtip probe. […] Res. Commun., 167, 554-560 (1990); the production of the pl peptide (SQNY) was measured.
The active fractions were combined, made 1.2M in ammonium sulfate, and applied to a 2.0×18 cm hexyl agarose column that had been equilibrated in Buffer A containing 1.2M ammonium sulfate. The sample was loaded at a flow rate of 1 mL/min at 4° C., washed with the equilibration buffer for 240 min (1 mL/min) and then eluted using a reverse linear gradient of 1.2-0M ammonium sulfate in Buffer A for 120 min at the same flow rate. The column was then washed isocratically in Buffer A for 120 min. […]

As to `CC(=O)N[C@@H](CC(N)=O)C(=O)N[C@@H](CSc1ccccc1)[C@H](O)Cc1ccccc1C(=O)NC(C)(C)C` (relative stereo) [Example 2, [2'R-(2'R*,3'R*,6'S*)]-N(t-Butyl)-2-[2'-hydroxy-3'-phenylthiomethyl-4',7'-diaza-5',8'-dioxo-6'-(2"-amino-2"-oxoethyl)]nonyl benzamide], the IC50 was 21.2 nM. Next, `CC(=O)N[C@@H](CC(N)=O)C(=O)N[C@@H](CSc1ccc2ccccc2c1)[C@H](O)Cc1ccccc1C(=O)NC(C)(C)C` (relative stereo) [Example 1, [2'R-(2'R*,3'R*, 6'S*)]-N(t-butyl)-2-[2'-hydroxy-3'-naphth-2-ylthiomethyl-4',7'-diaza-5',8'-dioxo-6'-(2"-amino-2"-oxoethyl)]nonyl benzamide]: 1.24 nM.
